According to patent US7504513B2, “Thiazolyl-benzimidazoles” (Hoffman-La Roche Inc., priority 2006, dated 2009):

Target: T1, GST-Plk1 (Homo sapiens, UniProt P53350)
T1 construct: Full-length, active GST-Plk1 was purified from Sf9 insect cells; made in house; host or cells: Sf9 insect cells
Experiment: Biochemical Characterization Assay: HTRF kinase assay, GST-Plk1 phosphorylation of GST-p53
Conditions: full-length active GST-Plk1, GST-p53 substrate, ATP, 37° C. for 35 minutes, HTRF signal
Method: Full-length, active GST-Plk1 was purified from Sf9 insect cells, and full-length GST-p53 was purified in E. coli. Anti-phospho p53 antibody was purchased from Cell Signaling Technology. Europium-conjugated anti-rabbit antibody was purchased from PerkinElmer Life and Analytical Sciences. APC-conjugated anti-GST antibody was purchased from Prozyme.
To two microliters of compound (0.6 nM-4 mM) in DMSO or plain DMSO for control wells, 38 microliters of 20 mM HEPES pH 7, 50 mM NaCl, 10 mM MgCl2, 0.5 mM TCEP, 0.1 mM sodium orthovanadate, 0.1 mg/ml BSA, and 0.05% Triton X-100 (Kinase Assay Buffer) were added. Eight microliters of the compound solution were added to a 384-well black microtiter plate, followed by six microliters of GST-p53 (17 ug/ml) and ATP (333 uM) in Kinase Assay Buffer. Six microliters of GST-Plk1 (3 ug/ml) in Kinase Assay Buffer were then added and the solution incubated at 37° C. for 35 minutes. Six microliters of solution containing 43 mM EDTA to stop the reaction and a 1:600 dilution of anti-phospho-p53 antibody in 20 mM HEPES pH 7, 50 mM NaCl, and 0.5 mg/ml BSA (Antibody Binding Buffer) were added and the solution incubated at 37° C. for 30 minutes. Six microliters of solution containing 9 nM europium-conjugated anti-rabbit antibody and 120 nM APC-conjugated anti-GST antibody in Antibody Binding Buffer were then added and the mixture incubated at room temperature for 1.5 hours. The HTRF signal was read on the Envision reader (PerkinElmer Life and Analytical Sciences).

T1 sequence (P53350 whole entry): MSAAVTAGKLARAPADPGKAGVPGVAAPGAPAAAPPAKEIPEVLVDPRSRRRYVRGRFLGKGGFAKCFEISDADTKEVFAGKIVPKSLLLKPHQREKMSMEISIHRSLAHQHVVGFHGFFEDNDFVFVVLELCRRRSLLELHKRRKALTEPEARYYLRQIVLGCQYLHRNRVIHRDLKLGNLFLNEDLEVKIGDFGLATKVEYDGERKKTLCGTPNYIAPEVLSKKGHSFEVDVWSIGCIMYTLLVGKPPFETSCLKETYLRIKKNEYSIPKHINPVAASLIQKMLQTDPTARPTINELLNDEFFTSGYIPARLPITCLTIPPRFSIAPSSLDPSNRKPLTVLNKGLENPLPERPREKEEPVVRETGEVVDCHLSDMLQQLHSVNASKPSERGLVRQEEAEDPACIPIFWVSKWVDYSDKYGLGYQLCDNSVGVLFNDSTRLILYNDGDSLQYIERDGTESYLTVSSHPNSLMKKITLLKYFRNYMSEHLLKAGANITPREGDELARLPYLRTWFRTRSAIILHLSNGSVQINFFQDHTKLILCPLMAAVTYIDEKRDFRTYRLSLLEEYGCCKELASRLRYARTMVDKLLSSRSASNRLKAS

In order of falling IC50:
1. 2-(4-Hydroxy-benzoimidazol-1-yl)-4-phenyl-thiazole-5-carboxylic acid and 2-(7-hydroxy-benzoimidazol-1-yl)-4-phenyl-thiazole-5-carboxylic acid [Example 7]  7470 nM
2. 1-(5-Carboxy-4-phenyl-thiazol-2-yl)-1H-benzoimidazole-4-carboxylic acid and 3-(5-carboxy-4-phenyl-thiazol-2-yl)-3H-benzoimidazole-4-carboxylic acid [Example 8]  6420 nM
3. COc1cc2ncn(-c3nc(-c4ccccc4)c(C(=O)NC4CC4)s3)c2cc1OC [Example 13, 2-(5,6-Dimethoxy-benzoimidazol-1-yl)-4-phenyl-thiazole-5-carboxylic acid cyclopropylamide]  3310 nM
4. COc1cc2ncn(-c3nc(-c4cccc5ccccc45)c(C(=O)O)s3)c2cc1OC [Example 32, 2-(5,6-Dimethoxy-benzoimidazol-1-yl)-4-naphthalen-1-yl-thiazole-5-carboxylic acid]  3180 nM
5. C=Cc1ccc(-c2nc(-n3cnc4cc(OC)c(OC)cc43)sc2C(=O)O)cc1 [Example 51, 2-(5,6-Dimethoxy-benzoimidazol-1-yl)-4-(4-vinyl-phenyl)-thiazole-5-carboxylic acid]  2670 nM
6. 2-(8H-5,7-Dioxa-1,3-diaza-cyclopenta[b]naphthalen-3-yl)-4-phenyl-thiazole-5-carboxylic acid and 2-(8H-5,7-Dioxa-1,3-diaza-cyclopenta[b]naphthalen-1-yl)-4-phenyl-thiazole-5-carboxylic acid [Example 9]  2620 nM
7. COc1ccc(-c2nc(-n3cnc4cc(OC)c(OC)cc43)sc2C(=O)O)cc1OC [Example 18, 2-(5,6-Dimethoxy-benzoimidazol-1-yl)-4-(3,4-dimethoxy-phenyl)-thiazole-5-carboxylic acid]  2390 nM
8. O=C(O)c1sc(-n2cnc3cc(O)c(O)cc32)nc1-c1ccccc1 [Example 39, 2-(5,6-Dihydroxybenzoimidazol-1-yl)-4-phenyl-thiazole-5-carboxylic acid]  2020 nM
9. 2-(5-Methylbenzoimidazol-1-yl)-4-phenylthiazole-5-carboxylic acid and 2-(6-Methylbenzoimidazol-1-yl)-4-phenylthiazole-5-carboxylic acid [Example 4]  1550 nM
10. COc1cc2ncn(-c3nc(-c4ccccc4)c(C(=O)N(C)C)s3)c2cc1OC [Example 10, 2-(5,6-Dimethoxy-benzoimidazol-1-yl)-4-phenyl-thiazole-5-carboxylic acid dimethylamide]  1380 nM
11. 2-(5-Chloro-6-fluoro-benzoimidazol-1-yl)-4-phenyl-thiazole-5-carboxylic acid and 2-(6-chloro-5-fluoro-benzoimidazol-1-yl)-4-phenyl-thiazole-5-carboxylic acid [Example 35]  1290 nM
12. 2-(5-Chloro-6-methylbenzoimidazol-1-yl)-4-phenylthiazole-5-carboxylic acid and 2-(6-chloro-5-methylbenzoimidazol-1-yl)-4-phenylthiazole-5-carboxylic acid [Example 16]  1170 nM
13. COc1cc2ncn(-c3nc(-c4cccc(CO)c4)c(C(=O)O)s3)c2cc1OC [Example 49, 2-(5,6-Dimethoxy-benzoimidazol-1-yl)-4-(3-hydroxymethyl-phenyl)-thiazole-5-carboxylic acid]  1080 nM
14. COc1ccc(-c2nc(-n3cnc4cc(OC)c(OC)cc43)sc2C(=O)O)cc1 [Example 28, 2-(5,6-Dimethoxy-benzoimidazol-1-yl)-4-(4-methoxy-phenyl)-thiazole-5-carboxylic acid]  856 nM
15. COCCOc1cc2ncn(-c3nc(-c4ccccc4)c(C(=O)O)s3)c2cc1OCCOC [Example 48, 2-[5,6-Bis-(2-methoxy-ethoxy)-benzoimidazol-1-yl]-4-phenyl-thiazole-5-carboxylic acid]  819 nM
16. COc1cc2ncn(-c3nc(-c4ccc(C)cc4)c(C(=O)O)s3)c2cc1OC [Example 26, 2-(5,6-Dimethoxy-benzoimidazol-1-yl)-4-p-tolyl-thiazole-5-carboxylic acid]  657 nM
17. COc1cc2ncn(-c3nc(-c4ccccc4)c(C(=O)Nc4ccccc4)s3)c2cc1OC [Example 38, 2-(5,6-Dimethoxy-benzoimidazol-1-yl)-4-phenyl-thiazole-5-carboxylic acid phenylamide]  606 nM
18. COc1cc2ncn(-c3nc(-c4cccc(F)c4F)c(C(=O)O)s3)c2cc1OC [Example 29, 4-(2,3-Difluoro-phenyl)-2-(5,6-dimethoxy-benzoimidazol-1-yl)-thiazole-5-carboxylic acid]  538 nM
19. COc1cc2ncn(-c3nc(-c4cccc(Cl)c4)c(C(=O)Nn4cnnc4)s3)c2cc1OC [Example 57, 4-(3-Chloro-phenyl)-2-(5,6-dimethoxy-benzoimidazol-1-yl)-thiazole-5-carboxylic acid [1,2,4]triazol-4-ylamide]  344 nM
20. 2-(5-Methoxy-benzoimidazol-1-yl)-4-phe-nyl-thiazole-5-car-boxylic acid; compoundwith 2-(6-methoxy-benzoimidazol-1-yl)-4-phenyl-thiazole-5-carboxylic acid [Example 15]  226 nM
21. COc1cc2ncn(-c3nc(-c4cccc(O)c4)c(C(=O)O)s3)c2cc1OC [Example 34, 2-(5,6-Dimethoxy-benzoimidazol-1-yl)-4-(3-hydroxy-phenyl)-thiazole-5-carboxylic acid]  211 nM
22. COc1cccc(-c2nc(-n3cnc4cc(OC)c(OC)cc43)sc2C(=O)O)c1 [Example 20, 2-(5,6-Dimethoxy-benzoimidazol-1-yl)-4-(3-methoxy-phenyl)-thiazole-5-carboxylic acid]  127 nM
23. COc1cc2ncn(-c3nc(-c4ccccc4)c(C(=O)O)s3)c2cc1OC [Example 1, 2-(5,6-Dimethoxybenzoimidazol-1-yl)-4-phenylthiazole-5-carboxylic acid]  107 nM
24. C=Cc1cccc(-c2nc(-n3cnc4cc(OC)c(OC)cc43)sc2C(=O)O)c1 [Example 40, 2-(5,6-Dimethoxy-benzoimidazol-1-yl)-4-(3-vinyl-phenyl)-thiazole-5-carboxylic acid]  102 nM
25. COc1cc2ncn(-c3nc(-c4ccnc(Cl)c4)c(C(=O)O)s3)c2cc1OC [Example 64, 4-(2-Chloro-pyridin-4-yl)-2-(5,6-dimethoxy-benzoimidazol-1-yl)-thiazole-5-carboxylic acid]  75 nM
26. COc1cc2ncn(-c3nc(-c4cc(Cl)cc(Cl)c4)c(C(=O)O)s3)c2cc1OC [Example 41, 4-(3,5-Dichloro-phenyl)-2-(5,6-dimethoxy-benzoimidazol-1-yl)-thiazole-5-carboxylic acid]  66 nM
27. COc1cc2ncn(-c3nc(-c4cccc(Cl)c4)c(C(=O)Nc4ccncn4)s3)c2cc1OC [Example 54, 4-(3-Chloro-phenyl)-2-(5,6-dimethoxy-benzoimidazol-1-yl)-thiazole-5-carboxylic acid pyrimidin-4-ylamide]  47 nM
28. COc1cc2ncn(-c3nc(-c4cccc(Cl)c4)c(C(=O)NNC(=O)c4cccs4)s3)c2cc1OC [Example 53, Thiophene-2-carboxylic acid N′-[4-(3-chloro-phenyl)-2-(5,6-dimethoxybenzoimidazol-1-yl)-thiazole-5-carbonyl]-hydrazide]  18 nM
